From article PMC8448983 (European journal of medicinal chemistry, 2021)
Marks after values point to notes of the source that are not given here.

Legend:
human blood platelets [1] = test: ADP-induced platelet aggregation in platelet-rich plasma; type: cell-based; settings: 10 μM ADP, mean ± SD, n = 6–9
human blood platelets [2] = test: Formation of thrombus on collagen in flow conditions; type: cell-based; settings: whole blood perfused over collagen; 50 μM compound; n = 9
[3] = target: T1, human A2B adenosine receptor (Homo sapiens, UniProt P29275); settings: USEF, HEK-A2B membranes, 25 nM [3H]-DPCPX; for percent of inhibition, A2B AR: 10 μM compound
T1 sequence (P29275 1-332): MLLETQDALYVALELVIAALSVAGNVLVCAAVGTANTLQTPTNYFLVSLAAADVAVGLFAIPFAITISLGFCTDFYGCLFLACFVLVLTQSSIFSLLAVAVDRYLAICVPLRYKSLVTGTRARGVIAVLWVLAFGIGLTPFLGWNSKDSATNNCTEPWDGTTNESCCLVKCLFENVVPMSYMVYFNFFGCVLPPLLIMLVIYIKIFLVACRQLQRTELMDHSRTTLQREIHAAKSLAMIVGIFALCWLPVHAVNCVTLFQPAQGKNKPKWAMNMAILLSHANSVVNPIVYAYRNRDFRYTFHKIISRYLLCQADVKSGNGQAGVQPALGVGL

[4] = target: T2, human A3 adenosine receptor (Homo sapiens, UniProt P0DMS8); settings: for Ki: read-out: Ki, A3 AR, USEF, HeLa-A3 membranes, 10 nM [3H]-NECA; for activity class (active / inactive) in selectivity analysis / receptor selectivity class: N6 carborane derivatives, USEF binding data
T2 sequence (P0DMS8 1-318): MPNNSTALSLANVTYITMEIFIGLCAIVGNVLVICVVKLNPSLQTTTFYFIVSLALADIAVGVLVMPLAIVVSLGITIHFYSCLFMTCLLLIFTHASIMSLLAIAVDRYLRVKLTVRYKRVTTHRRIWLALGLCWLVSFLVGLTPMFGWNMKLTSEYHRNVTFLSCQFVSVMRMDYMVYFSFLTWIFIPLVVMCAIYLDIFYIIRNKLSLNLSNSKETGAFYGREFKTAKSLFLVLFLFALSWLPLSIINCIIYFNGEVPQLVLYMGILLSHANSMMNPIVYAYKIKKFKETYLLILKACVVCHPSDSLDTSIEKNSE

human blood platelets [5] = test: Aggregation of blood platelets in whole blood; settings: for effect on ADP-induced platelet aggregation in whole blood: ADP, 10, 30, 50 μM compound, n = 13; for effect on arachidonic acid-induced platelet aggregation in whole blood: data not shown; for effect on collagen-induced platelet aggregation in whole blood: collagen 1 μg/mL
[6] = target: T3, human A2A adenosine receptor (Homo sapiens, UniProt P29274); settings: for radioligand displacement at A2A receptor: 50 μM compound, Fig. 1; for percent of inhibition, A2A AR: 10 μM compound, USEF, HeLa-A2A membranes, 3 nM [3H]-ZM241385
T3 sequence (P29274 whole entry): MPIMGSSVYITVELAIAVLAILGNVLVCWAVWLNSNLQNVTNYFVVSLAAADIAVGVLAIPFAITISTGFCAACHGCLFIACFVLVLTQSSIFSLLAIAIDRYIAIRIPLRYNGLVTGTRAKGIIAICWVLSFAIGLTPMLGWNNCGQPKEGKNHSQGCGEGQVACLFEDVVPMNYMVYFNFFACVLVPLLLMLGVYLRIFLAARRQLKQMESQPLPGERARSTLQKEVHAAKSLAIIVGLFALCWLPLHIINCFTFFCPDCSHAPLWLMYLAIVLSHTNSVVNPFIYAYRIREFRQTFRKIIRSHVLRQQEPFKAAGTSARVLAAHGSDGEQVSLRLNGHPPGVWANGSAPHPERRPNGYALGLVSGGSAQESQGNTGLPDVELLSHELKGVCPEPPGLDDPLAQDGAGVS

[7] = target: T4, human A1 adenosine receptor (Homo sapiens, UniProt P30542); test: biochemical
T4 sequence (P30542 1-326): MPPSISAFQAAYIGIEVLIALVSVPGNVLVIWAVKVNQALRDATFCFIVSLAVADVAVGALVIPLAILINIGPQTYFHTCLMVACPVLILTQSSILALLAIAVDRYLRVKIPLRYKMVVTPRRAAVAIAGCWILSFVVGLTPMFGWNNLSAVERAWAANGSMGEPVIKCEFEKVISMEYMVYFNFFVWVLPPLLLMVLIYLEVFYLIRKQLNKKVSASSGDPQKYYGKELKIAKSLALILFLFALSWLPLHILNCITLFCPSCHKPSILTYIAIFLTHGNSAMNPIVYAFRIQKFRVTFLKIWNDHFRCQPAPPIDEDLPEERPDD

[8] = target: T3, human A2A adenosine receptor; test: biochemical
A3 receptor = settings: read-out: experimental Ki, A3 AR; ref PubChem CID 9958472; cited from earlier work
human A3 receptor = target: T5, human A3 receptor (Homo sapiens, UniProt P0DMS8); test: Functional cAMP assay in CHO-A3 cells; type: cell-based; settings: for KB (antagonist mode; functional character at A3): inhibition of NECA (0.1 μM) effect on cAMP; for % Emax: maximal agonist effect; for EC50: read-out: EC50 (cAMP), agonist mode
T5 sequence (P0DMS8 1-318): T2 sequence (P0DMS8 1-318)

[9] = target: T4, human A1 adenosine receptor; settings: 10 μM compound; USEF; CHO-A1 membranes; 1 nM [3H]-DPCPX

Compound	area under the aggregation curve, ADP-induced platelet aggregation (human blood platelets [1]; 10 μM compound) [arbitrary units]	area under the aggregation curve, ADP-induced platelet aggregation (human blood platelets [1]; 50 μM compound) [arbitrary units]	effect on thrombus formation on collagen under flow (human blood platelets [2])	Ki [4] [nM]	effect on ADP-induced platelet aggregation in whole blood (human blood platelets [5])	effect on arachidonic acid-induced platelet aggregation in whole blood (human blood platelets [5])	effect on collagen-induced platelet aggregation in whole blood (human blood platelets [5])	radioligand displacement at A2A receptor [6]	KB (antagonist mode; functional character at A3) (human A3 receptor)	% Emax (human A3 receptor) [%]	EC50 (human A3 receptor) [nM]	percent of inhibition, A1 AR [9] [%^a]	percent of inhibition, A2A AR [6] [%^a]	percent of inhibition, A2B AR [3] [%^a]	activity class (active / inactive) in selectivity analysis [4]	receptor selectivity class [4]	further results
5′-ethylcarbamoyl-N^6-(3-phenylpropyl)adenosine [Compound 18]	630.0 ± 80.3	336.8 ± 108.5	did not exert an inhibitory effect	4.5	significantly inhibited	no effect	significantly inhibited										Ki ([3]; read-out: Ki, A2B AR): 1380 nM
OC[C@H]1O[C@@H](n2cnc3c(NCCCc4ccccc4)nc(Cl)nc32)[C@H](O)[C@@H]1O [Compound 24, 6-N-(3-phenylpropyl)-2-chloroadenosine]								at least 50%									Ki [7]: 3340 nM; IC50 [8]: 22000 ± 4400 nM
OC[C@H]1O[C@@H](n2cnc3c(NCCCc4ccccc4)ncnc32)[C@H](O)[C@@H]1O [Compound 40, N^6-(3-phenylpropyl)adenosine]			smaller than the thrombi in the untreated samples		significantly decreased	did not inhibit	did not inhibit	at least 50%									
CNC(=O)[C@H]1O[C@@H](n2cnc3c(NCc4ccc(N)c(I)c4)ncnc32)[C@H](O)[C@@H]1O [I-AB-MECA]																	Ki (A3 receptor): 1.2 to 2.1 nM
N^6-[(1,12-dicarba-closo-dodecaboran-1-yl)but-4-yl]-5′-ethylcarbamoyl-adenosine [Compound 15]	698.7 ± 74.4	657.1 ± 70.7		437					no antagonist	99	1010	40 ± 2	9 ± 1	7 ± 2	active	A3 AR selective	
N^6-[(1,12-dicarba-closo-dodecaboran-1-yl)but-4-yl]adenosine [Compound 7]	686.5 ± 66.1	642.8 ± 45.4		444					no antagonist	103	271	29 ± 1	2 ± 1	1 ± 1	active	A3 AR selective	
